Positions of bridges follow the written chain, without caps; N, C: chain ends. Non-standard residues stand in square brackets, D forms with d. Residues, ends and D or L forms follow the SMILES beside them. No end group written: not given here.
What was measured:
[1] = test system: SDF-1α induced THP-1 migration; assay: THP-1 trans-well migration assay, SDF-1α as chemoattractant; format: cell-based, human; conditions: for ED50 (µM) versus SDF-1α: inhibition of THP-1 migration, n.s./ns = not statistically significant
Protocol: (§1) To determine whether an agent inhibits a chemokine-induced activity, such as macrophage recruitment, varying amounts of the agent are mixed with cells in the presence of a known chemoattractant. For example, a range of known concentrations of an agent, e.g., a chemokine peptide, is incubated with a defined number (e.g., 10^4 - […]) of human THP-1 monocyte cells in individual wells of the top compartment of a trans-well plate. Chemokine (such as MCP-1, MIP1α, IL8 or SDF-1α), at a concentration known to cause significant migration of THP-1 cells in the trans-well migration assay, is placed in the lower compartment (Figure 1). Cells are then incubated at 37°C for a period sufficient to allow migration, e.g., 4 hours. After incubation, the cells are gently removed from the top of the filter with a pipette, 20 µl of 20 mM EDTA in simple PBS is added into each top well, and incubated for 20 minutes at 4°C. The filter is carefully flushed with media using a gentle flow, and removed. A standard curve consisting of a two-fold dilution series of THP-1 cells (in 29 µl) is prepared to accurately quantify the number of cells that have migrated. Migrated cells are stained with 3 µl of MTT stock dye solution which is added directly into each well (5 mg/ml in RPMI-1640 without phenol red, Sigma Chemical Co.) and incubated at 37°C for 4 hours. The media is carefully aspirated from each well, and the converted dye is solubilized by 20 µl of DMSO. Absorbance of converted dye is measured at a wavelength of 595 nm using an ELISA plate reader. The number of migrated cells in each well is then determined by interpolation of the standard curve (see also Imai et al.,J. Biol. Chem., 272, 15036 (1997)).
(§2) For this assay, THP-1 cells were maintained at a density of 4 × 10^5 cells per ml in RPMI-1640 supplemented with 10% fetal calf serum + 20 µM 2-mercaptoethanol. Chemotaxis was induced in a 96-well disposable chemotaxis chamber fitted with a 5 µM polycarbonate filter (PVP free, ChemoTX, Neuroprobe Inc., Cabin John). Twenty-nine µl of chemoattractant (recombinant human chemokine; 50 ng/ml, i.e., 5.9 nM) or control (100 ng/ml TGFβ) was added to the lower compartment of each well. The framed filter was aligned with the holes in the corner of the filter frame and placed over the wells.
(§3) Five × 10^4 THP-1 cells in 25 µl of RPMI-1640 were added to the upper compartment. Peptides were dissolved in Milli Q water and then serially diluted in culture medium. In most cases, the serially diluted peptides were added to the upper compartment of the chemotaxis chamber. The chamber was incubated at 37°C in a humidified atmosphere of 5% CO2 for 4 hours.
(§4) After incubation, the cells were gently removed from the top of the filter with a pipette, 20 µl of 20 mM EDTA in PBS was added into each top well, and the mixture was incubated for 20 minutes at 4°C. The filter was then carefully flushed with media using a gentle flow, and removed. A standard curve was prepared to accurately quantify the number of THP-1 cells that had migrated. The curve was based on a two-fold dilution series of THP-1 cells (top standard 100,000 cells in 29 µl). Cells which had migrated, and in separate wells, the cells in the standards, were stained with 3 µl of MTT stock solution which was added directly into each well (5 mg/ml in RPMI 1640 without phenol red, Sigma Chemical Co.) and incubated at 37°C for 4 hours. The media was carefully aspirated from each well, and the converted dye was solubilized by 20 µl of DMSO. Absorbance of converted dye was measured at a wavelength of 595 nm using an ELISA plate reader. The number of cells that had migrated in each well was determined by interpolation of the standard curve.
(§5) To investigate the receptor specificity of peptide 3 inhibition, the ED50 was determined for peptide 3(1-12)[MCP-1] (SEQ ID NO:1) inhibition of THP-1 migration induced by chemokines which signal through different receptors than MCP-1 receptors. […]

[2] = test system: MCP-1 induced THP-1 migration; assay: THP-1 trans-well migration assay, MCP-1 as chemoattractant; format: cell-based, human; conditions: for ED50 (µM) versus MCP-1: inhibition of THP-1 migration, n.s./ns = not statistically significant; for ED50 v MCP-1: MCP-1 induced chemotaxis of THP-1 cells; for % inhibition at 100 µM versus MCP-1: THP-1 migration, agent at 100 µM with the cells, n.s. or dash = no statistically significant inhibition
Protocol: as §1
Any method suitable for counting cells can be used, for example, counting with a hemocytometer, incubation of the cells with MTT (see above), or FACS analysis. A negative control assay is also performed, using TGF-β or another non-chemokine chemoattractant (e.g., IL1β or TNFα). To assess whether the agent is cytotoxic, the same concentrations of agent are incubated with THP-1 cells. Agents which 1) are not cytotoxic at levels which inhibit migration, 2) are ineffective at inhibiting the negative control-induced migration, and 3) reduce or inhibit chemokine-induced THP-1 migration, are agents which fall within the scope of the invention.
as §2, with “Twenty-nine µl of chemoattractant (recombinant human chemokine; 50 ng/ml, i.e., 5.9 nM) or control (100 ng/ml TGFβ) was added to the lower compartment of each well.” left out
as §3
as §4, with “Absorbance of converted dye was measured at a wavelength of 595 nm using an ELISA plate reader. The number of cells that had migrated in each well was determined by interpolation of the standard curve.” left out

[3] = test system: MIP1α induced THP-1 migration; assay: THP-1 trans-well migration assay, MIP1α as chemoattractant; format: cell-based, human; conditions: for ED50 (µM) versus MIP1α: inhibition of THP-1 migration, n.s./ns = not statistically significant
Protocol: as §1, §2, §3, §4, §5

[4] = biological target: T1, Duffy Antigen Receptor for Chemokines (DARC) (Homo sapiens, UniProt Q16570); assay: DARC binding: competition with 125I-MCP-1 on red blood cells; conditions: for DARC binding (µM): ns = not significantly different from control, >100 = not determined
T1 sequence (Q16570 1-336): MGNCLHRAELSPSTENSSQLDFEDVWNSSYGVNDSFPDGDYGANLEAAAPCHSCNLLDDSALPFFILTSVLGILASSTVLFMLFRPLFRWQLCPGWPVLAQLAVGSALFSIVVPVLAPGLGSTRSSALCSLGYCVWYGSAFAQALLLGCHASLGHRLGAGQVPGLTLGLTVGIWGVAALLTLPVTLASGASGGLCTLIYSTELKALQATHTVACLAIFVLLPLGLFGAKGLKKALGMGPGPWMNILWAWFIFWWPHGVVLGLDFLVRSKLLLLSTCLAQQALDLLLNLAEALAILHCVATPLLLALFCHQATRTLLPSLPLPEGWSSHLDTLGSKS

[5] = THP-1 migration, agent at 100 µM, n.s. or dash = no statistically significant inhibition

Row | Compound | ED50 (µM) versus SDF-1α [1] | ED50 (µM) versus MCP-1 [2] | ED50 (µM) versus MIP1α [3] | DARC binding (µM) [4] | potency as inhibitor of THP-1 migration induced by MCP-1 relative to the D-ala derivative [2] [fold] | ED50 v MCP-1 ([2]; listed as CRD-Cys13Leu4Ile11peptide 3(3-12)[MCP-1]) [nM] | ED50 v MCP-1 ([2]; listed as NR58-3.14.3) [nM] | Duffy selectivity / DARC specificity ratio ([4]; estimated ka for binding to red blood cells divided by average inhibitory ED50) | % inhibition at 100 µM versus SDF-1α [1, 5] | % inhibition at 100 µM versus MCP-1 [2] | % inhibition at 100 µM versus MCP-1 ([2]; listed as Peptide 1[MCP-1]) [%] | % inhibition at 100 µM versus MCP-1 ([2]; listed as peptide 1[MCP-1]) [%] | ED50 (µM) versus MCP-1 ([2]; listed as Peptide 1[MCP-1]) [µM] | % inhibition of the MCP-1 induced migration at 100 µM ([2]; peptide introduced with the chemokine in the lower compartment) [%] | % inhibition at 100 µM versus MIP1α [3, 5]
1 | CSYRRITSSKSPKEAVC | ns | ns | ns | ns |  |  |  |  |  |  |  |  |  |  | 
2 | CC[C@@H](C)[C@H]1NC(=O)[C@@H](CCC(N)=O)NC(=O)[C@H](N)CSSC[C@H](C(N)=O)NC(=O)[C@@H](CC(C)C)NC(=O)[C@@H](CC(=O)O)NC(=O)[C@H]2CCCN2C(=O)[C@@H](CCCCN)NC(=O)[C@@H](CCC(N)=O)NC(=O)[C@@H](CCCCN)NC(=O)[C@@H](Cc2c[nH]c3ccccc23)NC1=O (H-[dC][dQ][dI][dW][dK][dQ][dK][dP][dD][dL][dC]-NH2; disulfide 1-11) |  |  |  |  | 1000 | 1 to 10 | 10 | > 100 |  |  |  |  |  |  | 
3 | =cvaekpsksstirrysc= ([dC][dV][dA][dE][dK][dP][dS][dK][dS][dS][dT][dI][dR][dR][dY][dS][dC]; bridge 1-17 (inferred); not fully specified; printed as =cvaekpsksstirrysc=) | ns | ns | ns | ns |  |  |  |  |  |  |  |  |  |  | 
4 | CC[C@H](C)[C@H](NC(=O)[C@H](C)NC(=O)[C@H](CC(=O)O)NC(=O)[C@@H]1CCCN1C(=O)[C@H](CCC(N)=O)NC(=O)[C@H](C)N)C(=O)N[C@@H](CC(N)=O)C(=O)N[C@@H](C)C(=O)N1CCC[C@H]1C(=O)N[C@H](C(=O)N[C@H](C(=O)N[C@@H](CS)C(=O)N[C@@H](CS)C(=O)O)[C@@H](C)O)C(C)C [Peptide 1] (H-AQPDAINAPVTCC-OH; N-terminus and C-terminus assumed) | n.s. | n.s.^b | n.s.^b |  |  |  |  |  | n.s. | n.s.^b | 10 | 10 | > 100 | 48 | n.s.^b

— EP2386565A2, “Compounds and methods to inhibit or augment an inflammatory response” (Cambridge Enterprise Ltd., priority 1999, dated 2000)
